Reference: the NIST ThermoML archive (doi:10.1016/j.fluid.2006.03.009)
Numbers after ± are expanded uncertainties.

Conditions: Liquid

SMILES | vapor or sublimation pressure (273.15 K) [kPa] | vapor or sublimation pressure (278.15 K) [kPa] | vapor or sublimation pressure (283.15 K) [kPa] | vapor or sublimation pressure (293.15 K) [kPa] | vapor or sublimation pressure (303.15 K) [kPa] | vapor or sublimation pressure (313.15 K) [kPa]
CCC [propane] | 474 ± 2.6 | 550.8 ± 2.8 | 636 ± 2.9 | 836.2 ± 3.4 | 1077.6 ± 4 | 1368 ± 4.7
C=CC [propene] | 586 ± 2.8 | 678.5 ± 3 | 780.8 ± 3.3 | 1019 ± 3.8 | 1307.6 ± 4.6 | 1652.2 ± 5.6
